In the oligonucleotide strings, read from the 5' end, every base follows the letter of its sugar. An asterisk marks phosphorothioate; unmarked linkages are phosphodiester. Other units and linkages are bracketed, terminal groups are in braces. A string of capitals states the bases alone. e = 2'-O-(2-methoxyethyl) (MOE); [5mC] = 5-methylcytosine; d = 2'-deoxy (DNA)
System: human apolipoprotein B mRNA
Assay: Inhibition of human apolipoprotein B mRNA levels in HepG2 cells, quantitative real-time PCR
Assay type: cell-based
Conditions: for % INHIB: Table 1; for % INHIB / Percent Inhibition 50 nM / Percent Inhibition 150 nM / Percent Inhibition 250 nM: HepG2 cells; for % INHIB / Percent Inhibition 150 nM: 150 nM; for % INHIB / % INHIB (inhibition of human apolipoprotein B mRNA levels): averages from two experiments; for Percent Inhibition 50 nM / Percent Inhibition 150 nM / Percent Inhibition 250 nM: Table 2; for % INHIB (inhibition of human apolipoprotein B mRNA levels): HepG2 cells treated with 150 nM of compound, quantitative real-time PCR
Protocol: The human hepatoblastoma cell line HepG2 was obtained from the American Type Culture Collection (Manassas, Va.). HepG2 cells were routinely cultured in Eagle's MEM supplemented with 10% fetal calf serum, non-essential amino acids, and 1 mM sodium pyruvate (Gibco/Life Technologies, Gaithersburg, Md.). Cells were routinely passaged by trypsinization and dilution when they reached 90% confluence. Cells were seeded into 96-well plates (Falcon-Primaria #3872) at a density of 7000 cells/well for use in RT-PCR analysis.
When cells reached 80% confluency, they were treated with oligonucleotide. For cells grown in 96-well plates, wells were washed once with 200 μL OPTI-MEM™-1 reduced-serum medium (Gibco BRL) and then treated with 130 μL of OPTI-MEM™-1 containing 3.75 μg/mL LIPOFECTIN™ (Gibco BRL) and the desired concentration of oligonucleotide. After 4-7 hours of treatment, the medium was replaced with fresh medium. Cells were harvested 16-24 hours after oligonucleotide treatment.
Quantitation of apolipoprotein B mRNA levels was determined by real-time quantitative PCR using the ABI PRISM™ 7700 Sequence Detection System (PE-Applied Biosystems, Foster City, Calif.) according to manufacturer's instructions. This is a closed-tube, non-gel-based, fluorescence detection system which allows high-throughput quantitation of polymerase chain reaction (PCR) products in real-time. As opposed to standard PCR, in which amplification products are quantitated after the PCR is completed, products in real-time quantitative PCR are quantitated as they accumulate. This is accomplished by including in the PCR reaction an oligonucleotide probe that anneals specifically between the forward and reverse PCR primers, and contains two fluorescent dyes. A reporter dye (e.g., JOE, FAM, or VIC, obtained from either Operon Technologies Inc., Alameda, Calif. or PE-Applied Biosystems, Foster City, Calif.) is attached to the 5′ end of the probe and a quencher dye (e.g., TAMRA, obtained from either Operon Technologies Inc., Alameda, Calif. or PE-Applied Biosystems, Foster City, Calif.) is attached to the 3′ end of the probe. When the probe and dyes are intact, reporter dye emission is quenched by the proximity of the 3′ quencher dye. During amplification, annealing of the probe to the target sequence creates a substrate that can be cleaved by the 5′-exonuclease activity of Taq polymerase. […] With each cycle, additional reporter dye molecules are cleaved from their respective probes, and the fluorescence intensity is monitored at regular intervals by laser optics built into the ABI PRISM™ 7700 Sequence Detection System. In each assay, a series of parallel reactions containing serial dilutions of mRNA from untreated control samples generates a standard curve that is used to quantitate the percent inhibition after antisense oligonucleotide treatment of test samples.
PCR reagents were obtained from PE-Applied Biosystems, Foster City, Calif. RT-PCR reactions were carried out by adding 25 μL PCR cocktail (1× TAQMAN™ buffer A, 5.5 mM MgCl2, 300 μM each of DATP, dCTP and dGTP, 600 μM of dUTP, 100 nM each of forward primer, reverse primer, and probe, 20 Units RNAse inhibitor, 1.25 Units AMPLITAQ GOLD™, and 12.5 Units MuLV reverse transcriptase) to 96 well plates containing 25 μL total RNA solution. The RT reaction was carried out by incubation for 30 minutes at 48° C. Following a 10 minute incubation at 95° C. to activate the AMPLITAQ GOLD™, 40 cycles of a two-step PCR protocol were carried out: 95° C. for 15 seconds (denaturation) followed by 60° C. for 1.5 minutes (annealing/extension).
Gene target quantities obtained by real time RT-PCR are normalized using either the expression level of GAPDH, a gene whose expression is constant, or by quantifying total RNA using RiboGreen™ (Molecular Probes, Inc. Eugene, Oreg.). GAPDH expression is quantified by real time RT-PCR, by being run simultaneously with the target, multiplexing, or separately. […]

147780 (antisense e[5mC]*e[5mC]*eG*e[5mC]*eA*dG*dG*dT*d[5mC]*d[5mC]*d[5mC]*dG*dG*dT*dG*eG*eG*eA*eA*eT) [compound 147780]
% INHIB: 40%

147781 (antisense eA*e[5mC]*e[5mC]*eG*eA*dG*dA*dA*dG*dG*dG*d[5mC]*dA*d[5mC]*dT*e[5mC]*eA*eG*e[5mC]*e[5mC]) [compound 147781]
% INHIB: 35%

147782 (antisense eG*e[5mC]*e[5mC]*eT*e[5mC]*dG*dG*d[5mC]*d[5mC]*dT*d[5mC]*dG*d[5mC]*dG*dG*e[5mC]*e[5mC]*e[5mC]*eT*eG) [compound 147782]
% INHIB: 67%

147784 (antisense e[5mC]*eA*eG*e[5mC]*eG*d[5mC]*d[5mC]*dA*dG*d[5mC]*dA*dG*d[5mC]*dG*d[5mC]*e[5mC]*eA*eG*e[5mC]*eA) [compound 147784]
% INHIB: 70%

147785 (antisense eG*e[5mC]*e[5mC]*e[5mC]*eG*d[5mC]*d[5mC]*dA*dG*d[5mC]*dA*dG*d[5mC]*dA*dG*e[5mC]*eA*eG*e[5mC]*eA) [compound 147785]
% INHIB: 29%

147786 (antisense e[5mC]*eT*eT*eG*eA*dA*dT*d[5mC]*dA*dG*d[5mC]*dA*dG*dT*d[5mC]*e[5mC]*e[5mC]*eA*eG*eG) [compound 147786]
% INHIB: 34%

147788 (antisense eT*eT*eT*e[5mC]*eT*dG*dT*dT*dG*d[5mC]*d[5mC]*dA*d[5mC]*dA*dT*eT*eG*e[5mC]*e[5mC]*e[5mC]) [compound 147788]
% INHIB: 95% | Percent Inhibition 50 nM: 54% | Percent Inhibition 150 nM: 63% | Percent Inhibition 250 nM: 72%

147789 (antisense eG*eG*eA*eA*eG*dA*dG*dG*dT*dG*dT*dT*dG*d[5mC]*dT*e[5mC]*e[5mC]*eT*eT*eG) [compound 147789]
% INHIB: 24%

147790 (antisense eT*eG*eT*eG*e[5mC]*dT*dA*d[5mC]*d[5mC]*dA*dT*d[5mC]*d[5mC]*d[5mC]*dA*eT*eA*e[5mC]*eT*eT) [compound 147790]
% INHIB: 33%

147792 (antisense eG*eG*eA*e[5mC]*eA*d[5mC]*d[5mC]*dT*d[5mC]*dA*dA*dT*d[5mC]*dA*dG*e[5mC]*eT*eG*eT*eG) [compound 147792]
% INHIB: 26%

147794 (antisense eG*eT*eA*eA*eT*d[5mC]*dT*dT*d[5mC]*dA*dT*d[5mC]*d[5mC]*d[5mC]*d[5mC]*eA*eG*eT*eG*e[5mC]) [compound 147794]
% INHIB: 47%

147796 (antisense eG*e[5mC]*eA*eG*e[5mC]*d[5mC]*dA*dG*dT*d[5mC]*dG*d[5mC]*dT*dT*dA*eT*e[5mC]*eT*e[5mC]*e[5mC]) [compound 147796]
% INHIB: 8%

147801 (antisense e[5mC]*eA*eG*eA*e[5mC]*d[5mC]*d[5mC]*dG*dA*d[5mC]*dT*d[5mC]*dG*dT*dG*eG*eA*eA*eG*eA) [compound 147801]
% INHIB: 38%

147806 (antisense eA*eT*eG*eT*eG*dG*dT*dA*dA*d[5mC]*dG*dA*dG*d[5mC]*d[5mC]*e[5mC]*eG*eA*eA*eG) [compound 147806]
% INHIB: 100% | Percent Inhibition 50 nM: 23% | Percent Inhibition 150 nM: 45% | Percent Inhibition 250 nM: 28%

147807 (antisense eG*eG*e[5mC]*eG*eT*dA*dG*dA*dG*dA*d[5mC]*d[5mC]*d[5mC]*dA*dT*e[5mC]*eA*e[5mC]*eA*eT) [compound 147807]
% INHIB: 25%

147809 (antisense e[5mC]*e[5mC]*e[5mC]*eA*eG*dT*dG*dA*dT*dA*dG*d[5mC]*dT*d[5mC]*dT*eG*eT*eG*eA*eG) [compound 147809]
% INHIB: 60%

147810 (antisense eA*eT*eT*eT*e[5mC]*dA*dG*d[5mC]*dA*dT*dA*dT*dG*dA*dG*e[5mC]*e[5mC]*e[5mC]*eA*eT) [compound 147810]
% INHIB: 0%

147814 (antisense e[5mC]*e[5mC]*e[5mC]*eA*eA*dT*dA*dA*dG*dA*dT*dT*dT*dA*dT*eA*eA*e[5mC]*eA*eA) [compound 147814]
% INHIB: 34%

147815 (antisense eT*eG*eG*e[5mC]*e[5mC]*dT*dA*d[5mC]*d[5mC]*dA*dG*dA*dG*dA*d[5mC]*eA*eG*eG*eT*eA) [compound 147815]
% INHIB: 45%

147816 (antisense eT*e[5mC]*eA*eT*eA*d[5mC]*dG*dT*dT*dT*dA*dG*d[5mC]*d[5mC]*d[5mC]*eA*eA*eT*e[5mC]*eT) [compound 147816]
% INHIB: 100% | Percent Inhibition 50 nM: 25% | Percent Inhibition 150 nM: 81% | Percent Inhibition 250 nM: 65%

147817 (antisense eG*e[5mC]*eA*eT*eG*dG*dT*d[5mC]*d[5mC]*d[5mC]*dA*dA*dG*dG*dA*eT*eG*eG*eT*e[5mC]) [compound 147817]
% INHIB: 0%

147818 (antisense eA*eG*eT*eG*eA*dT*dG*dG*dA*dA*dG*d[5mC]*dT*dG*d[5mC]*eG*eA*eT*eA*e[5mC]) [compound 147818]
% INHIB: 30%

147820 (antisense eG*eA*eA*e[5mC]*eA*d[5mC]*dA*dT*dA*dG*d[5mC]*d[5mC]*dG*dA*dA*eT*eG*e[5mC]*e[5mC]*eG) [compound 147820]
% INHIB: 100% | Percent Inhibition 50 nM: 10% | Percent Inhibition 150 nM: 0% | Percent Inhibition 250 nM: 73%

147823 (antisense eT*eG*e[5mC]*e[5mC]*e[5mC]*dT*dG*d[5mC]*dA*dG*d[5mC]*dT*dT*d[5mC]*dA*e[5mC]*eT*eG*eA*eA) [compound 147823]
% INHIB: 19%

147825 (antisense eA*eG*eA*eA*eG*d[5mC]*dT*dG*d[5mC]*d[5mC]*dT*d[5mC]*dT*dT*d[5mC]*eT*eT*e[5mC]*e[5mC]*e[5mC]) [compound 147825]
% INHIB: 72%

147826 (antisense eT*e[5mC]*eA*eG*eG*dG*dT*dG*dA*dG*d[5mC]*d[5mC]*d[5mC]*dT*dG*eT*eG*eT*eG*eT) [compound 147826]
% INHIB: 80%

147827 (antisense e[5mC]*eT*eA*eA*eT*dG*dG*d[5mC]*d[5mC]*d[5mC]*d[5mC]*dT*dT*dG*dA*eT*eA*eA*eA*e[5mC]) [compound 147827]
% INHIB: 13%

147828 (antisense eA*e[5mC]*eG*eT*eT*dA*dT*d[5mC]*d[5mC]*dT*dT*dG*dA*dG*dT*e[5mC]*e[5mC]*e[5mC]*eT*eG) [compound 147828]
% INHIB: 12%

147829 (antisense eT*eA*eT*eA*eT*d[5mC]*d[5mC]*d[5mC]*dA*dG*dG*dT*dT*dT*d[5mC]*e[5mC]*e[5mC]*e[5mC]*eG*eG) [compound 147829]
% INHIB: 64%

147831 (antisense e[5mC]*eT*eG*e[5mC]*e[5mC]*dT*dA*d[5mC]*dT*dG*d[5mC]*dA*dA*dG*dG*e[5mC]*eT*eG*eG*e[5mC]) [compound 147831]
% INHIB: 0%

147833 (antisense eA*eT*eG*eA*eT*dA*d[5mC]*dA*d[5mC]*dA*dA*dT*dA*dA*dA*eG*eA*e[5mC]*eT*e[5mC]) [compound 147833]
% INHIB: 25%

270985 (antisense eT*eT*e[5mC]*e[5mC]*eT*d[5mC]*dT*dT*d[5mC]*dG*dG*d[5mC]*d[5mC]*d[5mC]*dT*eG*eG*e[5mC]*eG*e[5mC]) [compound 270985]
% INHIB (inhibition of human apolipoprotein B mRNA levels): 75%

270986 (antisense e[5mC]*eT*e[5mC]*e[5mC]*eA*d[5mC]*dT*dG*dG*dA*dA*d[5mC]*dT*d[5mC]*dT*e[5mC]*eA*eG*e[5mC]*e[5mC]) [compound 270986]
% INHIB (inhibition of human apolipoprotein B mRNA levels): 0%

Reference: patent publication US7803930B2, “Antisense modulation of apolipoprotein B-expression” (Isis Pharmaceuticals, Inc., priority 2002, dated 2010)
